The test system of data set [1] is Friend leukemia virus. The data set is described as follows: Test 3: survival rate of mice in lethal FLV infection. The format is in vivo. To be noted: 42 days. The protocol: Friend leukemia virus FLV) was prepared as a 20% suspension of infected C3H/HeN spleen in Hank's balanced saline and 0.2 ml/head of the FLV preparation was challenged intraperitoneally to mice in groups of 12. The viruses were challenged in amounts large enough to cause death within a short time.
FK-565 (1, 0.01 mg/kg) was given intravenously once a day on days 1, 4, 7, 11, 14, 18, 21 and 25 (total: 8 doses).
The mice were given the two drugs according to the same dosing schedules.

In data set [2] the test system is Friend leukemia virus. The data set is described as follows: Test 1: splenomegaly by Friend leukemia virus in mice (severe infection). The format is in vivo, C3H/HeN mice. Here is the method: (§1) Animals: Male C3H/HeN strain mice aged 5 weeks were used in groups of 10. The animals were housed in an isolation room at 21°-25° C. and supplied with food and water at libitum.
Virus and Induction of splenomegaly: Friend leukemia virus (FLV) was prepared as a 10% suspension of infected C3H/HeN spleen in Hank's balanced saline and was originally supplied by Kitazato University. Following centrifugation (7,000 rpm for 20 mins.) the virus preparation was frozen and stored at -70° C. 0.2 ml/head of FLV diluted 2-, 5-, or 10-fold to induce infection of varying severity was challenged intraperitoneally in mice. […]

Data set [3] concerns Friend leukemia virus. The data set is described as follows: Test 2: splenomegaly by FLV in mice, same method as Test 1 with other doses. The format is in vivo, C3H/HeN mice. Conditions: day 14. The protocol: as §1
Virus and Induction of splenomegaly: Friend leukemia virus (FLV) was prepared as a 10% suspension of infected C3H/HeN spleen in Hank's balanced saline and was originally supplied by Kitazato University. Following centrifugation (7,000 rpm for 20 mins.) the virus preparation was frozen and stored at -70° C. 0.2 ml/head of FLV diluted 2-, 5-, or 10-fold to induce infection of varying severity was challenged intraperitoneally in mice.
Dosing schedules: FK-565 was given intravenously or orally in doses of 0.01 mg/kg to 1 mg/kg 4 hours after challenge and once on days 3, 7, 11 (total 4 doses).

For data set [4] the following is noted: therapeutic dose of AZT; cited from earlier work.
Data set [5] deals with Rauscher murine leukemia virus complex(RLV). To be noted: mice infected with RLV; cited from earlier work.
The mark [6] stands for this setting: FK-565 0.01 mg/kg i.v. alone, day 14.
Where [7] appears, read: FK-565 0.1 mg/kg i.v. alone, day 14.
[8] abbreviates: FK-565 0.1 mg/kg p.o. alone, day 14.
Setting [9] is: FK-565 0.01 mg/kg i.v., AZT 0 mg/kg.
[10] abbreviates: FK-565 1 mg/kg i.v., AZT 0 mg/kg.

Regarding `CCCCCCC(=O)N[C@H](CCC(=O)N[C@@H](CCC[C@@H](N)C(=O)O)C(=O)N[C@H](C)C(=O)O)C(=O)O` [FK-565], the survival rate was 8 in the data set with Friend leukemia virus [1] (FK-565 0.01 mg/kg/time i.v., AZT 0) and 17 in the data set on Friend leukemia virus [1] (FK-565 1 mg/kg/time i.v., AZT 0). Moreover, the Inhibition % in the data set on Friend leukemia virus [2] (setting [6]) is recorded as 36.4%; with Friend leukemia virus [2] (setting [7]), 37.0%; with Friend leukemia virus [2] (setting [8]), 27.8%; with Friend leukemia virus [2] (FK-565 1 mg/kg i.v. alone, day 14) it was 46.5%; with Friend leukemia virus [2] (FK-565 1 mg/kg p.o. alone, day 14), 38.9%. Besides, the Spleen weight is on record as 1047.0 ± 106.1 mg in the data set on Friend leukemia virus [2] (setting [6]); 1038.0 ± 176.8 mg with Friend leukemia virus [2] (setting [7]); 1133.0 ± 170.0 mg in the data set with Friend leukemia virus [2] (setting [8]); 947.0 ± 124.1 mg with Friend leukemia virus [2] (FK-565 1 mg/kg i.v. alone, 4 doses, day 14); 984.0 ± 144.8 mg with Friend leukemia virus [2] (FK-565 1 mg/kg p.o. alone, 4 doses, day 14). Moreover, the “(%) inhibition of splenomegaly” value in the data set with Friend leukemia virus [3] (setting [9]) stood at 19.6%; in the data set on Friend leukemia virus [3] (setting [10]), 55.3%. Besides, the figures for the Spleen in the data set on Friend leukemia virus [3] (setting [9]) and in the data set on Friend leukemia virus [3] (setting [10]) were 750 ± 119.0 mg and 487 ± 47.3 mg, respectively.

Consider `Cc1cn([C@H]2C[C@H](N=[N+]=[N-])[C@@H](CO)O2)c(=O)[nH]c1=O` [AZT, 3'-Azido-3'-deoxythymidine], for which the side effects entry in data set [4] was “anemia, leukopenia, neutropenia and occasional thrombocytopenia”. Also, the survival rate in the data set with Friend leukemia virus [1] (AZT 4 mg/kg/time i.p., FK-565 0) worked out at 0; in the data set on Friend leukemia virus [1] (AZT 20 mg/kg/time i.p., FK-565 0), 25; in the data set on Friend leukemia virus [1] (AZT 100 mg/kg/time i.p., FK-565 0), 50. Further, the Inhibition % is reported as 24.8% in the data set on Friend leukemia virus [2] (AZT 5 mg/kg i.p. alone, day 14) and 38.1% in the data set with Friend leukemia virus [2] (AZT 20 mg/kg i.p. alone, day 14). Also, the Spleen weight with Friend leukemia virus [2] (AZT 5 mg/kg i.p. alone, day 14) worked out at 1107.8 ± 158.3 mg; in the data set on Friend leukemia virus [2] (AZT 20 mg/kg i.p. alone, 27 doses, FLV 2-fold dilution, 14 days after infection) it was 944.0 ± 104.9 mg. In data set [5], the “survival time in infected mice” value is “prolong significantly the survival time”. Moreover, the “(%) inhibition of splenomegaly” value in the data set with Friend leukemia virus [3] (AZT 0.63 mg/kg i.p. alone) is listed as 33.3%; in the data set on Friend leukemia virus [3] (AZT 2.5 mg/kg i.p. alone), 38.3%; in the data set on Friend leukemia virus [3] (AZT 10 mg/kg i.p. alone), 49.3%; in the data set on Friend leukemia virus [3] (AZT 40 mg/kg i.p. alone), 81.1%; in the data set with Friend leukemia virus [3] (AZT 160 mg/kg i.p. alone), 97.4%. Also, the Spleen is 633 ± 67.6 mg with Friend leukemia virus [3] (AZT 0.63 mg/kg i.p. alone), 605 ± 134.9 mg with Friend leukemia virus [3] (AZT 2.5 mg/kg i.p. alone), 519 ± 130.6 mg with Friend leukemia virus [3] (AZT 10 mg/kg i.p. alone) and 267 ± 51.6 mg with Friend leukemia virus [3] (AZT 40 mg/kg i.p. alone).

Values taken from patent US5229368A, “Composition for prevention and (or) treatment of Aids” (Fujisawa Pharmaceutical Co., Ltd., priority 1987, dated 1993).
